From patent publication US11932657B2, “Heterocyclic compound” (priority 2018, dated 2024) come the findings set out here.

Assay [1] addresses T1, aryl hydrocarbon receptor (AhR) (Homo sapiens, UniProt P35869).
T1 construct: DRE-Luc HepG2 cells subcultured in a 225 cm^2 flask; endogenous in cells; host or cells: HepG2 (ATCC), stably transfected with the reporter hCYP1A1/pGL4.27 (DRE-Luc HepG2)
T1 sequence (P35869 11-848): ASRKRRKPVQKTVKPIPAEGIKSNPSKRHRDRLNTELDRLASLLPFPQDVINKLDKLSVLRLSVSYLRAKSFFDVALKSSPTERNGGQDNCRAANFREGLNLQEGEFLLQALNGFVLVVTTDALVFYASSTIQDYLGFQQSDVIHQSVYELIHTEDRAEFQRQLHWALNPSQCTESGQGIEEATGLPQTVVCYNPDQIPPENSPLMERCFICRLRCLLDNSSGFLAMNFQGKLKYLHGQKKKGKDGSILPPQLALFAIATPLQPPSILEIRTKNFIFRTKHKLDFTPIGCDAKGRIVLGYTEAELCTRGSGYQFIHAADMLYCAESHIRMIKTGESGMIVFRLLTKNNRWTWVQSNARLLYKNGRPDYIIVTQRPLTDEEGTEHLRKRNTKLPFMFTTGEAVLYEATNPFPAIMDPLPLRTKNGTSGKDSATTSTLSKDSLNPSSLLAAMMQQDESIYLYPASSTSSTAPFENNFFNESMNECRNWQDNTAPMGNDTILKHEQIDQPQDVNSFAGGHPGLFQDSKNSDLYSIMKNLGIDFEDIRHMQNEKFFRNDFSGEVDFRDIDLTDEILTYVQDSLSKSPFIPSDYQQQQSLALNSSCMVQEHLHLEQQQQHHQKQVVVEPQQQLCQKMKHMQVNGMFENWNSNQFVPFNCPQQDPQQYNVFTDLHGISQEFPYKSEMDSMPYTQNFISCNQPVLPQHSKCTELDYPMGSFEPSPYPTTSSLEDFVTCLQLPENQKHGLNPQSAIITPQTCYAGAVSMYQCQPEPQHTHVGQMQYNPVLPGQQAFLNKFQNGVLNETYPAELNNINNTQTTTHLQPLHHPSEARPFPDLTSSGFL
The experiment in a line: AhR reporter gene assay (aryl hydrocarbon receptor antagonist activity, DRE-Luc HepG2 cells, TCDD-stimulated luciferase). The class given is cell-based. The procedure, abridged: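 HepG2 cells stably carrying a human CYP1A1 promoter/DRE-driven luciferase reporter were pretreated with compound for 24 h at 37°C. TCDD (5×10^−10 M in the added solution) was then added for a further 24 h. Firefly luciferase luminescence was read as the measure of antagonism.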
On the technique in general: In a reporter assay the amount or activity of a reporter protein is the signal.

In assay [2] the test system is immortalized megakaryocyte line (SeV2-MKCL). The experiment in a line: Platelet production: static culturing of immortalized megakaryocyte line. The assay is classed as cell-based. Conditions: compound final concentration 0.1 μM, static culturing 6 to 7 days, control (DMSO) set to 1; platelets = CD41, CD42b and CD42a-positive cells. The procedure, abridged:
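SeV2-MKCL cells, washed free of doxycycline to stop forced expression, seeded at 1×10^5 cells/mL in IMDM-based medium with compound (final 0.1 μM) or DMSO, static culture 6–7 days, 37° C., 5% CO2. CD41/CD42a/CD42b-positive platelets counted by bead-corrected flow cytometry; platelets per megakaryocyte expressed as fold over DMSO control.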

Compound `Fc1cncc(-c2nc(NCCc3c[nH]c4ccccc34)c3nc4n(c3n2)CCCS4)c1` [Example 109] yielded an IC50 in assay [1] of 0.011 µM. In assay [2], the “Static (vs veh): fold increase of platelet production efficiency (PLT/MK)” value is listed as 7.8.
Take `CC1(C)COc2nc3c(NCCc4c[nH]c5ccccc45)nc(-c4ccc5nccn5c4)nc3n21` [Example 110]: inhibition in assay [1] was half-maximal at 0.04 µM (IC50). In addition, the “Static (vs veh): fold increase of platelet production efficiency (PLT/MK)” value in assay [2] came out at 6.1.
Taken in the same sequence, the figures for `CC1(C)COc2nc3c(NCCc4c[nH]c5ccccc45)nc(-c4ccc5ncnn5c4)nc3n21` [Example 111] were 0.04 µM and 7.0.

By IC50 is commonly meant the concentration that gives 50% inhibition.
